Earlier results, collected in US9808446B2, “Method for decreasing symptoms of alcohol consumption” (Alcobra Ltd., priority 2007, dated 2017).

Tests used:
frontoparietal cortex = conditions: guinea pigs, brain
[1] = long term data
[2] = not given; remark: listed apart in the source

## Cc1ncc(CO)c(CO)c1O.O=C1CC[C@@H](C(=O)O)N1 [Metadoxine, pyridoxol L,2-pyrrolidon-5 carboxylate]
Frontoparietal cortex
  level of GABA and acetylcholine in the frontoparietal cortex: increased
Animal studies
  glutathione depletion in hepatic tissues: prevented
  oxidative stress in hepatic tissues: reduced
During chronic alcohol intake
  increased production of fatty acid esters in the liver: inhibited
[1]
  safety for use by humans: safe
[2]; Lu Yuan et al.
  mean half life in human serum: about 0.8 hour
[2]; oral
  bioavailability: 60-80%
  oral absorption: fast
[2]; oral and intravenous, without appreciable differences
  half life in human serum: 40 to 60 min
